Test results: patent US20220323427A1, “SOMATOSTATIN RECEPTOR TYPE 5 AGONIST FOR THE TREATMENT OF HYPERINSULINISM” (Crinetics Pharmaceuticals, Inc., priority 2021, published 2022)

Tests used:
[1] = tested on: glyburide-induced hyperinsulinemic hypoglycemia; assay: Glyburide-induced hyperinsulinemic hypoglycemia model in rats; type: in vivo, Sprague Dawley rats; details: 30 mg/kg oral, adult male rats; mean baseline 168 mg/dL
Protocol: Sulfonylurea drugs, such as glyburide, inhibit KATP channels and can be used in rat preclinical models to mimic the disease state of congenital HI patients with KATP channel mutations.
This model of glyburide-induced hyperinsulinemic hypoglycemia was used to assess the pharmacodynamic effects of Compound 1 after a single administration in male and female adult rats and male neonatal rats.
Glyburide was administered to raise insulin levels and induce hypoglycemia in adult male Sprague Dawley rats.
Two hours following glyburide administration, Compound 1 was given by oral gavage and blood glucose was monitored over 5 hours.

[2] = fasting conditions; cited from earlier work
human pancreatic islets = assay: Glucagon secretion in perifused human islets; type: cell-based; details: islets from a healthy donor; G3+Arg
Protocol: For glucagon secretion, glucose (Boston BioProducts #BM-675) solutions, G3, G16.7 and G3 plus 20 mM arginine (Sigma #A8094; G3+Arg) were prepared in PB [24 mM NaHCO3 (Fisher Scientific #S233-500), 120 mM NaCl (Spectrum Chemical #S0155), 4.8 mM KCl (Fisher Scientific #P217-500), 2.5 mM CaCl2 (Fisher Scientific #C614-500), 1.2 mM MgCl2 (Sigma #M8266), 10 mM HEPES (Gibco #15630-080) and 0.1% BSA (EMD Millipore #12-675-100GM)]. Various concentrations of Compound 1 and diazoxide (Sigma #D9035) were prepared in G16.7 or in G3+Arg. On the day of the assay, ten perifusion chambers (Biorep #Peri-chamber) were loaded with a bead suspension (Biorep #Peri-beads-20) followed by 300 IEQ and another layer of bead suspension. Chambers were filled with PB, placed in the perifusion equipment and equilibrated with G3 for 74 min (flow rate=230 μL/min) followed by the perifusion steps for glucagon secretion shown in Table 3. […] Glucagon concentration was quantified using the commercially-available Mercodia Glucagon ELISA (Mercodia #10-1271-01) kit. undiluted perfusate samples were added to the supplied pre-coated assay plates. […] The optical density of each well was determined at 450 nm in a Tecan M1000Pro (Tecan, Switzerland) multiplate reader. Glucagon concentrations were calculated by regression to the standard curve using GraphPad Prism (GraphPad, San Diego, Calif.).

[3] = cited from earlier work

Structure (SMILES) | Blood glucose level after glyburide [1] | half-life [2] | Inhibition of arginine-stimulated glucagon secretion (human pancreatic islets) | Patients treated and considered responsive who continue to have hypoglycemia ([3]; 2020 Congenital HI International Global Registry report) | Patients who experienced pulmonary hypertension ([3]; one study) | Side effect: fluid retention ([3]; patients) | Side effect: gastrointestinal side effects including feeding aversion ([3]; patients) | Side effect: severe hypertrichosis ([3]; patients)
COc1ccc(Cl)cc1C(=O)NCCc1ccc(S(=O)(=O)NC(=O)NC2CCCCC2)cc1 [glyburide, reference compound] | 70 mg/dL | approximately 10 hours | – | – | – | – | – | –
CC1=NS(=O)(=O)c2cc(Cl)ccc2N1 [diazoxide] | – | – | up to 57% | 30% | 4.8% | approximately 30% | approximately 12% | approximately 52%
